Data set [1] relates to isolated hepatocytes from swiss mice. In words: Hepatotoxicity, thiazolyl blue tetrazolium bromide (MTT) colorimetric assay. The data set is classed as cell-based, mouse. As to the method: (§1) Several parameters have been evaluated to determine ADME-Tox profile of the compounds. Two specific toxicity assays have been performed to assess hepatoxicity and cardiotoxicity. Hepatotoxicity was evaluated in isolated hepatocytes from swiss mice and determined by the thiazolyl blue tetrazolium bromide colorimetric assay (sigma, St Louis, MO, USA). Cardiotoxicity was evaluated using the commercially available Predictor hERG fluorescence polarization kit (Thermo Fisher Scientific, Illinois, USA). Several absorption, distribution, metabolism, and excretion (ADME) assays have been carried out. The following experiments were undertaken: stability in human microsomes, binding to human plasma protein, and CYP3A4 inhibition assay (Vivid CYP3A4 assay, Thermo Fisher Scientific, Illinois, USA). Physico-chemical properties were also assessed such as aqueous solubility and chemical stability.

Another data set can be described thus: Aqueous solubility. The data set is classed as physicochemical. How it is done:
as §1

A further data set deals with T1, CYP3A4 (Homo sapiens, UniProt P08684).
T1 construct: purchased Thermo Fisher Scientific
T1 sequence (P08684 whole entry): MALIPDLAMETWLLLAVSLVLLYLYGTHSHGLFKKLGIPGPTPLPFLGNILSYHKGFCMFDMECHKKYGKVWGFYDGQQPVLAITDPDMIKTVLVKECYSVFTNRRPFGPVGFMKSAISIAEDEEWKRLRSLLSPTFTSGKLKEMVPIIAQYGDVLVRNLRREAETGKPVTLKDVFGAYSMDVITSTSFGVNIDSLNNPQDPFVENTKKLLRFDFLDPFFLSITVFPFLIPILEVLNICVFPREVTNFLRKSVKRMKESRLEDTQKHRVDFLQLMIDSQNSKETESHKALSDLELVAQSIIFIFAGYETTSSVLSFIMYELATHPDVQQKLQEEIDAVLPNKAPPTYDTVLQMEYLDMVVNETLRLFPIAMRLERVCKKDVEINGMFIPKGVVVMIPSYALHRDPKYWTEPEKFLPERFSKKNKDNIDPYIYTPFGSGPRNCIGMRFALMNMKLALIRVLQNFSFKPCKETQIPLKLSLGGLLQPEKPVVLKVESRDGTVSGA
In words: CYP3A4 inhibition assay (Vivid CYP3A4 assay). The data set is classed as in vitro ADME. As to the method:
as §1

For data set [2], the target named is T2, hNGAL (Homo sapiens, UniProt P80188).
T2 construct: purchased R&D Systems
T2 sequence (P80188 21-198): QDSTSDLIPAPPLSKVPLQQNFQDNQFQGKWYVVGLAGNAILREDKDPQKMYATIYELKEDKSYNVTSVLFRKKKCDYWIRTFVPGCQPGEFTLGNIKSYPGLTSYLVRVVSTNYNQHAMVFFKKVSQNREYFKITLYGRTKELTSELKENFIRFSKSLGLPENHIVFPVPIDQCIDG
In words: Cell proliferation (MTT) in hNGAL-treated human cardiac fibroblasts. Type of data set: cell-based. How it is done: (§2) Primary human cardiac fibroblasts (HCF) were obtained from Promocell (Heidelberg, Germany) and maintained in Fibroblast Media 3 following manufacturer’s instructions (Promocell). Cells were used between passages 5 and 7. Cells were stimulated with recombinant hNGAL (500 ng/mL, R&D Systems) or with TGFβ (10 ng/mL, R&D Systems) for 24 h. To assess cell proliferation the MTT test was used following provider’s instructions (Roche). For protein analysis. Primary Mouse Kidney Fibroblasts (MKF) were isolated from Wild Type (WT) mice. Briefly, 8 weeks old mice were sacrificed by cervical dislocation and kidneys were cleaned and rinsed in cold DPBS (Dulbecco's Phosphate-Buffered Saline). The renal cortex was minced and incubated in Dulbecco’s modified eagle medium/Nutrient mixture F-12 (DMEM/F12, Sigma) containing 1 mg/mL collagenase A (Roche) during 25 min at 37 °C. The digestion was inactivated by adding culture medium (DMEM/F12 + 10% FBS) then the cell suspension was passed through a 100-μm cell strainer. After centrifugation, the pellet (containing MKF) was diluted with culture medium then plated in 75 cm^2 culture flask. After 24 h MKF were washed with DPBS before replacement of fresh culture medium. Thereafter, culture medium was changed every 48 h. Once 70–80% confluent, MKF were trypsinized and plated in 12 or 6-well plates. For experimental use, MKF were starved with culture medium containing only 3% FBS. MKF were treated with mNGAL (500 ng/mL, R&D Systems) or with TGFβ (10 ng/mL, R&D Systems) for 6 h for gene expression analysis.
Cell proliferation was assessed using the MTT Proliferation Assay (Sigma).

Data set [3] deals with T2, hNGAL. In words: hNGAL-induced IL6 and Col I secretion in human cardiac fibroblasts (ELISA). Type of data set: cell-based. Set-up: % inhibition versus hNGAL on IL-6 secretion: concentration or dose not given beside the values. Particulars: for IL-6 secretion: hNGAL-treated human cardiac fibroblasts, mean ± SEM. As to the method: as §2
IL6 and collagen type I concentrations were measured in cardiac tissue and cell supernatants by ELISA according to the manufacturer's instructions (R&D Systems).
(ELISA stands for enzyme-linked immunosorbent assay.)

The nature of a further data set: Chemical stability. Type of data set: physicochemical. Particulars: Table S5. As to the method: as §1
Another data set deals with human plasma protein. In words: Binding to human plasma protein. The data set is classed as in vitro ADME. As to the method: as §1
For data set [4], the target named is T2, hNGAL. In words: hNGAL-induced intracellular profibrotic protein levels in human cardiac fibroblasts (Western blot). Type of data set: cell-based. Set-up: % inhibition versus hNGAL on Col I protein level / % inhibition versus hNGAL on Col III protein level / % inhibition versus hNGAL on Fibronectin protein level / % inhibition versus hNGAL on Galectin 3 protein level: concentration or dose not given beside the values. As to the method: as §2
Total protein aliquots of 20 μg were prepared from cardiac homogenates and HCF and electrophoresed on SDS polyacrylamide gels and transferred to Hybond-c Extra nitrocellulose membranes (Amersham Biosciences). Membranes were incubated with primary antibodies for: Collagen I (Santa Cruz; dilution 1:500), Collagen type III (Santa Cruz; dilution 1:500), fibronectin (Millipore, 1:500), Galectin-3 (Thermo, 1:1000), α-SMA (Sigma, 1:1000), CTGF (Santa Cruz, 1:200), CD68 (Abcam, 1:500), CD80 (Santa Cruz, 1:500), CD86 (Santa Cruz, 1:500). […] After densitometric analyses, optical density values were expressed as arbitrary units. Results are expressed as an n-fold increase over the values of the control group in densitometric arbitrary units.
In general terms: A western blot detects proteins with antibodies after separation by electrophoresis.

The target of a further data set is T3, hERG channel (Homo sapiens, UniProt Q12809).
T3 construct: purchased Thermo Fisher Scientific
T3 sequence (Q12809 whole entry): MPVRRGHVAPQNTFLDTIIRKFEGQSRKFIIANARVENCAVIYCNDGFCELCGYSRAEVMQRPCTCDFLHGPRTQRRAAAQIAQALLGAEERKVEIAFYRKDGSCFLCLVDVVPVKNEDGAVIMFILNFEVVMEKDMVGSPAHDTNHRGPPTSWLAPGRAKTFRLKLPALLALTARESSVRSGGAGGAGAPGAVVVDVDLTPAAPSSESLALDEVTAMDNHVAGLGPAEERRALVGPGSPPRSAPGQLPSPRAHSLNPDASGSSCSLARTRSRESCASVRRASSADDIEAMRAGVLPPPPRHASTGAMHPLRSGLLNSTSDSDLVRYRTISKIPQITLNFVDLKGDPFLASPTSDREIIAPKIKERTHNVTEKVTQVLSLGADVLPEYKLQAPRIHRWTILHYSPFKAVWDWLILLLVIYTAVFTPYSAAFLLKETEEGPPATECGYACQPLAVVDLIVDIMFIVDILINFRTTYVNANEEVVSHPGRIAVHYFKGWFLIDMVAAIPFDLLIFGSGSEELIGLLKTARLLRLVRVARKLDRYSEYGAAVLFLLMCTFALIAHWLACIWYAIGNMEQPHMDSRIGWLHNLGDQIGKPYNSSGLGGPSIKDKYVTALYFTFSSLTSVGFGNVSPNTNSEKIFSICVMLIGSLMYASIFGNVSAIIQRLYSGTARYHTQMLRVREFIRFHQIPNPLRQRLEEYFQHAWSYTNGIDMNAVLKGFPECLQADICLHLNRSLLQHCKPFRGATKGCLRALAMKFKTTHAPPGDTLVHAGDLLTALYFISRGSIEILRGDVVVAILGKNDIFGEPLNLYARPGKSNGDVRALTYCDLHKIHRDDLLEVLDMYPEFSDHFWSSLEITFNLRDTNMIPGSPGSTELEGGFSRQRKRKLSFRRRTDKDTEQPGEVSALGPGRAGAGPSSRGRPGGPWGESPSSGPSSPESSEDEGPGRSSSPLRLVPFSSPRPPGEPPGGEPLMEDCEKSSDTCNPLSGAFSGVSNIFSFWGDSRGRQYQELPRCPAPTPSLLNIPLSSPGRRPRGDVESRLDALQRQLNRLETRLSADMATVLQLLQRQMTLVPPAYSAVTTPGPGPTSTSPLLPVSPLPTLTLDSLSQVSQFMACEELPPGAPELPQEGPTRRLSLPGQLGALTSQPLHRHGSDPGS
In words: Cardiotoxicity, Predictor hERG fluorescence polarization kit. Type of data set: binding. As to the method: as §1

Setting [5] is: 10 µM, human cardiac fibroblasts, Fig. 1C.
Setting [6] is: Table S4, second generation compounds and parents, Control 1.00, NGAL 1.45.
Where [7] appears, read: Table S4, second generation compounds and parents, human cardiac fibroblasts.
Where [8] appears, read: Table S2, human cardiac fibroblasts.

The structures appear in SMILES notation.

Consider `CCS(=O)(=O)c1ccc2oc(SCc3cn4c(C)cc(C)nc4n3)nc2c1` [GPZ058225], for which the “Hepatotoxicity (MTT)” value in [1] is on record as > 0.1 mM. In data set [1] (Table S5, MTT), the Hepatotoxicity is recorded as > 100 µM. For the same molecule, in the data set “Aqueous solubility”, the “Solubility in aqueous buffers, in words” value is “mild solubility problems” and the Solubility test amounted to 63%. Moreover, in the data set “Aqueous solubility” (Table S5), the Aquous solubility % worked out at 63.46%. Further, the “CYP3A4 enzyme activity inhibited in a competition assay” value on CYP3A4 worked out at 32%. At CYP3A4 (Table S5), the “CyP 3A4 Inhibition % (100= no inhibition)” value worked out at 68.07 ± 1.52%. Moreover, at hNGAL [2] (10 µM, Fig. 1E), the “hNGAL-induced cell proliferation, in words” value is listed as “blocked”. Further, the “Dose–response on proliferation induced by NGAL” value at hNGAL [2] (Fig. S2) was “able to block the proliferative effects of NGAL at 1 and 10 µM, but not at lower concentrations”. Also, on hNGAL [3] (1 µM, human cardiac fibroblasts, Fig. S3), the “Increase in IL6 secretion induced by NGAL” value was “did not prevent”. On hNGAL [3] (setting [5]), the “NGAL-induced Col I secretion, in words” value is “fully inhibited” and the “NGAL-induced IL6 secretion, in words” value is “fully inhibited”. The same molecule displayed an IL-6 secretion at hNGAL [3] (Table S1, first generation compounds, Control 1.0 ± 0.1, NGAL 2.21 ± 0.2) of 0.99 ± 0.3. In addition, the “% inhibition versus hNGAL on IL-6 secretion” value at hNGAL [3] (Table S1, first generation compounds, human cardiac fibroblasts) was found to be 55.2%. Also, at hNGAL [3] (setting [6]), the IL-6 secretion stood at 0.72 ± 0.02. For the same molecule, the “% inhibition versus hNGAL on IL-6 secretion” value on hNGAL [3] (setting [7]) worked out at 50.4%. Also, the “Inhibitor effect on hNGAL-induced IL6 secretion, in words” value on hNGAL [3] (human cardiac fibroblasts, text on Tables S1 and S4) is recorded as “important inhibitor effect”. The “Chemical Stability %” value in the data set “Chemical stability” came out at 92.2%. In addition, in the data set on human plasma protein, the “Plasma protein binding (PPB), in words” value is listed as “within an acceptance range”. Moreover, the hPPB% in the data set with human plasma protein (Table S5, human plasma protein binding) is listed as 89.11%. For the same molecule, at hNGAL [4] (10 µM, human cardiac fibroblasts, Fig. 1D), the “hNGAL-induced expression of intracellular profibrotic proteins (Col I, Col III, fibronectin, Gal3), in words” value is reported as “blocked”. Also, the “Col III synthesis (protein level)” value at hNGAL [4] (Table S2, hNGAL-treated human cardiac fibroblasts, Control 1.0, NGAL 1.67, mean ± SEM) worked out at 1.05 ± 0.1. Moreover, at hNGAL [4] (Table S2, hNGAL-treated human cardiac fibroblasts, Control 1.0, NGAL 1.8, mean ± SEM), the “Fibronectin synthesis (protein level)” value stood at 0.62 ± 0.1. For the same molecule, the “Col I synthesis (protein level)” value at hNGAL [4] (Table S2, hNGAL-treated human cardiac fibroblasts, Control 1.0, NGAL 2.03, mean ± SEM) amounted to 1.27 ± 0.1. For the same molecule, the “Galectin-3 synthesis (protein level)” value on hNGAL [4] (Table S2, hNGAL-treated human cardiac fibroblasts, Control 1.0, NGAL 2.1, mean ± SEM) was found to be 1.0 ± 0.2. At hNGAL [4] (setting [8]), the “% inhibition versus hNGAL on Col I protein level” value turned out to be 37.5%, the “% inhibition versus hNGAL on Col III protein level” value stood at 37.1%, the “% inhibition versus hNGAL on Fibronectin protein level” value was 65.5% and the “% inhibition versus hNGAL on Galectin 3 protein level” value was determined as 52.3%. The “Cardiotoxicity (hERG predictor assay), in words” value at hERG channel is recorded as “did not block the hERG channel”.

Consider `O=C(Nc1nc2cc(F)c(F)cc2s1)c1cn2cccnc2n1` [GPZ278618], for which the IL-6 secretion at hNGAL [3] (setting [6]) is listed as 0.86± 0.02. At hNGAL [3] (setting [7]), the “% inhibition versus hNGAL on IL-6 secretion” value came to 40.1%.

Take `CC(=O)c1ccc(S(=O)(=O)Nc2ccccc2-n2cccn2)cc1` [GPZ478519]: the IL-6 secretion on hNGAL [3] (setting [6]) was determined as 0.69± 0.02. Further, the “% inhibition versus hNGAL on IL-6 secretion” value at hNGAL [3] (setting [7]) came out at 52.4%.

For `CC(=O)c1cccc(S(=O)(=O)NCc2ccccc2Cn2cccn2)c1` [GPZ505884], on hNGAL [3] (setting [6]), the IL-6 secretion is recorded as 0.83± 0.02. The “% inhibition versus hNGAL on IL-6 secretion” value at hNGAL [3] (setting [7]) is given as 42.8%.

Take `CC(=O)c1cccc(S(=O)(=O)NCc2ccccc2-c2ccc(CN(C)C)cc2)c1` [GPZ642292]: on hNGAL [3] (setting [6]), the IL-6 secretion stood at 0.64± 0.02. Moreover, on hNGAL [3] (setting [7]), the “% inhibition versus hNGAL on IL-6 secretion” value was determined as 55.9%.

Turning to `Cc1cc(C)n2cc(CSc3nc4ccccc4[nH]3)nc2n1` [GPZ743042], the IL-6 secretion at hNGAL [3] (setting [6]) was 0.94 ± 0.03. In addition, the “% inhibition versus hNGAL on IL-6 secretion” value on hNGAL [3] (setting [7]) was 35.2%.

`N#Cc1cccc(S(=O)(=O)NCc2cccc(-n3cccn3)c2)c1` [GPZ778195]: the IL-6 secretion at hNGAL [3] (setting [6]) is recorded as 0.88± 0.04. The “% inhibition versus hNGAL on IL-6 secretion” value on hNGAL [3] (setting [7]) worked out at 39.3%.

As for `CC(=O)c1cccc(S(=O)(=O)NCc2ccccc2-c2ccsc2)c1` [GPZ863205], the IL-6 secretion at hNGAL [3] (setting [6]) turned out to be 0.93± 0.03. Also, the “% inhibition versus hNGAL on IL-6 secretion” value at hNGAL [3] (setting [7]) amounted to 35.9%.

As for `CCN1CCN(Cc2ccccc2CNS(=O)(=O)c2cccc(C(C)=O)c2)CC1` [GPZ913629], the IL-6 secretion at hNGAL [3] (setting [6]) was 0.93± 0.02. The “% inhibition versus hNGAL on IL-6 secretion” value on hNGAL [3] (setting [7]) is listed as 35.9%.

These data come from paper PMC7844219, “Antifibrotic effect of novel neutrophil gelatinase-associated lipocalin inhibitors in cardiac and renal disease models” (Scientific Reports, 2021).
